The subject of one series is tubulin. Description: Fluorescence-based microtubule (tubulin) polymerization assay. Type of series: biochemical. How it is done: Tubulin polymerization was investigated using the “Fluorescence-based Microtubule Polymerisation Assay Kit” from Cytoskeleton (Denver, Colo., USA; order number: BK011). With this assay, GTP is added to unpolymerized tubulin, allowing polymerization to take place spontaneously. The assay is based on the binding of the fluorophore 4′,6-di-amidino-2-phenylindole (DAPI) to tubulin. Free and bound DAPI can be differentiated on the basis of different emission spectra.
[…] In addition to the buffer control, paclitaxel, with a polymerization-increasing effect, and vinblastin, with a polymerization inhibiting effect, were run additionally as assay controls. Measurement was carried out using 96-well plates with a half base area. The kinetics of the tubulin polymerization were monitored in a Fluorimeter at 37° C. for 1 hour. The excitation wavelength was 355 nm, and emission was monitored at 460 nm. For the region of linear increase within the first 10 minutes, a calculation was made of the change in fluorescence per minute (ΔF/min), which represents the polymerization rate of the microtubuli. The potency of the test substances was quantified on the basis of their respective reduction of the polymerization rate.
The reduction in the tubulin polymerization rate occurs in dependence on the concentration of the test substance added.

For another series, the system named is Caco-2 cells. Description: Caco-2 flux assay for cell permeability. Type of series: in vitro ADME. Conditions: 2 hours, B to A. On the procedure:
The cell permeability of a substance can be investigated by means of in vitro testing in a flux assay using Caco-2 cells [M. D. Troutman and D. R. Thakker, Pharm. Res. 20 (8), 1210-1224 (2003)]. For this purpose, the cells were cultured for 15-16 days on 24-well filter plates. For the determination of permeation, the respective working example was applied in a HEPES buffer to the cells either apically (A) or basally (B) and incubated for 2 hours. After 0 hours and after 2 hours, samples were taken from the cis and trans compartments. The samples were separated by HPLC (Agilent 1200, Böblingen, Germany) using reverse phase columns. The HPLC system was coupled via a Turbo Ion Spray Interface to a Triple Quadropol mass spectrometer API 4000 (Applied Biosystems Applera, Darmstadt, Germany). The permeability was evaluated on the basis of a Papp value, which was calculated using the formula published by Schwab et al. [D. Schwab et al., J. Med. Chem. 46, 1716-1725 (2003)].
Background: Passage across Caco-2 layers is used to estimate intestinal permeability.

The mark [1] stands for this setting: concentration of toxophore 1 μM.
The mark [2] stands for this setting: concentration of toxophore 10 μM.

SMILES strings stand for the structures. Several values for one entry are separate records, joined by “and”; a condition that tells them apart may be missing. Equal values may be shown once. Entries after “also recorded” stand apart in the source; their conditions may differ. Where a name gives a salt, the structure may show the parent alone. Square brackets hold non-standard residues; d marks the D form. Peptide text beside a SMILES is read from it. * marks the point of attachment. X2 = CC(C)[C@@H](C(=O)*)N(C)CCCCCCN1C(=O)CC(SC[C@H](N)C(=O)O)C1=O; X3 = CC(C)[C@@H](C(=O)*)N(C)CCOCCOCCOCCC(=O)NCCCC[C@H](N)C(=O)O; X4 = C[C@@H](O)[C@@H](C(=O)*)N(C)CCCCCC(=O)NCCCC[C@H](N)C(=O)O; X1 = CC(C)[C@@H](C(=O)*)N(C)CCCCCC(=O)NCCCC[C@H](N)C(=O)O; Dolaproine = CO[C@@H]([C@@H]1CCCN1)[C@@H](C)C(=O)O; Dil = CC[C@H](C)[C@H](NC)[C@@H](CC(=O)O)OC; Oxazinan2yl(1,2) = C1CCN(*)OC1; NMeV = CN[C@H](C(=O)O)C(C)C

Regarding `CC[C@H](C)[C@@H]([C@@H](CC(=O)N1CCC[C@H]1[C@H](OC)[C@@H](C)C(=O)N[C@@H](Cc1c[nH]c2ccccc12)C(=O)O)OC)N(C)C(=O)[C@@H](NC(=O)[C@H](C(C)C)N(C)CCCCCC(=O)NCCCC[C@H](N)C(=O)O)C(C)C` [Example 106, N-(6-{[(5S)-5-Amino-5-carboxypentyl]amino}-6-oxohexyl)-N-methyl-L-valyl-N-[(3R,4S,5S)-1-{(2S)-2-[(1R,2R)-3-{[(1S)-1-carboxy-2-(1H-indol-3-yl)ethyl]amino}-1-methoxy-2-methyl-3-oxopropyl]pyrrolidin-1-yl}-3-methoxy-5-methyl-1-oxoheptan-4-yl]-N-methyl-L-valinamide] (X1-V[Dil][Dolaproine]W-OH), the results for the “Tubulin polymerization in the presence of toxophore in [%]. Tubulin polymerization rate at 1 μM MMAF set at 100%” value (“Tubulin polymerization in the presence … at 100%” for short) in the series on tubulin (setting [1]) and in the series on tubulin (setting [2]) were 80% and 14%, respectively. Moreover, the “Papp (B-A)” value in the series with Caco-2 cells came to 0.1 ×10⁻⁶ cm/s.

Regarding `CC[C@H](C)[C@@H]([C@@H](CC(=O)N1CCC[C@H]1[C@H](OC)[C@@H](C)C(=O)N[C@@H](Cc1c[nH]c2ccccc12)C(=O)N1CCCCO1)OC)N(C)C(=O)[C@@H](NC(=O)[C@H](C(C)C)N(C)CCOCCOCCOCCC(=O)NCCCC[C@H](N)C(=O)O)C(C)C` [Example 107, N-[(18S)-18-Amino-18-carboxy-12-oxo-3,6,9-trioxa-13-azaoctadec-1-yl]-N-methyl-L-valyl-N-[(3R,4S,5S)-1-{(2S)-2-[(1R,2R)-3-{[(2S)-3-(1H-indol-3-yl)-1-(1,2-oxazinan-2-yl)-1-oxopropan-2-yl]amino}-1-methoxy-2-methyl-3-oxopropyl]pyrrolidin-1-yl}-3-methoxy-5-methyl-1-oxoheptan-4-yl]-N-methyl-L-valinamide trifluoroacetate] (X3-V[Dil][Dolaproine]W-{Oxazinan2yl(1,2)}), in the series with tubulin (concentration of toxophore 1 μM, trifluoroacetate), the “Tubulin polymerization in the presence … at 100%” value was 60% and 78%.

Regarding `CC[C@H](C)[C@@H]([C@@H](CC(=O)N1CCC[C@H]1[C@H](OC)[C@@H](C)C(=O)N[C@@H](Cc1c[nH]c2ccccc12)C(=O)O)OC)N(C)C(=O)[C@@H](NC(=O)[C@H](C(C)C)N(C)CCCCCCN1C(=O)CC(SC[C@H](N)C(=O)O)C1=O)C(C)C` (stereo partly drawn) [Example 66, N-[6-(3-{[(2R)-2-Amino-2-carboxyethyl]sulphanyl}-2,5-dioxopyrrolidin-1-yl)hexyl]-N-methyl-L-valyl-N-[(3R,4S,5S)-1-{(2S)-2-[(1R,2R)-3-{[(1S)-1-carboxy-2-(1H-indol-3-yl)ethyl]amino}-1-methoxy-2-methyl-3-oxopropyl]pyrrolidin-1-yl}-3-methoxy-5-methyl-1-oxoheptan-4-yl]-N-methyl-L-valinamide] (X2-V[Dil][Dolaproine]W-OH), the “Tubulin polymerization in the presence … at 100%” value with tubulin (setting [2]) was 25%. Also, the “Papp (B-A)” value in the series with Caco-2 cells came to 0.1 ×10⁻⁶ cm/s.

In the case of `CC[C@H](C)[C@@H]([C@@H](CC(=O)N1CCC[C@H]1[C@H](OC)[C@@H](C)C(=O)N[C@@H](Cc1ccc(O)cc1)C(=O)O)OC)N(C)C(=O)[C@@H](NC(=O)[C@H](C(C)C)N(C)CCCCCC(=O)NCCCC[C@H](N)C(=O)O)C(C)C` [Example 118, N-(6-{[(5S)-5-Amino-5-carboxypentyl]amino}-6-oxohexyl)-N-methyl-L-valyl-N-[(3R,4S,5S)-1-{(2S)-2-[(1R,2R)-3-{[(1S)-1-carboxy-2-(4-hydroxyphenyl)ethyl]amino}-1-methoxy-2-methyl-3-oxopropyl]pyrrolidin-1-yl}-3-methoxy-5-methyl-1-oxoheptan-4-yl]-N-methyl-L-valinamide trifluoroacetate] (X1-V[Dil][Dolaproine]Y-OH), the “Tubulin polymerization in the presence … at 100%” value in the series on tubulin (setting [1]) was found to be 90%; in the series with tubulin (setting [2]), 17%.

Take `CC[C@H](C)[C@@H]([C@@H](CC(=O)N1CCC[C@H]1[C@H](OC)[C@@H](C)C(=O)N[C@@H](Cc1ccccc1)C(=O)O)OC)N(C)C(=O)[C@@H](NC(=O)[C@@H](NC)C(C)C)C(C)C` [MMAF, Monomethylauristatin F, reference compound] (H-[NMeV]V[Dil][Dolaproine]F-OH): the “reduction in the polymerization rate” value in the series on tubulin (1 μM) is 40-45%. In addition, in the series with tubulin (100 μM), the “effect on tubulin polymerization” value is “complete cessation of polymerization; also recorded: inhibited completely”. For the same compound, the “Tubulin polymerization in the presence … at 100%” value with tubulin (setting [1]) was 100%; in the series on tubulin (setting [2]), 34%; with tubulin (concentration of toxophore 100 μM), 0%. In addition, the “Papp (B-A)” value in the series on Caco-2 cells is 7.3 ×10⁻⁶ cm/s.

With `CC[C@H](C)[C@@H]([C@@H](CC(=O)N1CCC[C@H]1[C@H](OC)[C@@H](C)C(=O)N[C@@H](Cc1c[nH]c2ccccc12)C(=O)NCc1ccccc1)OC)N(C)C(=O)[C@@H](NC(=O)[C@H](C(C)C)N(C)CCCC(=O)NNC(=O)CCCCCN1C(=O)CC(SC[C@H](N)C(=O)O)C1=O)C(C)C` (stereo partly drawn) [Example 68, N-(4-{2-[6-(3-{[(2R)-2-Amino-2-carboxyethyl]sulphanyl}-2,5-dioxopyrrolidin-1-yl)hexanoyl]hydrazino}-4-oxobutyl)-N-methyl-L-valyl-N-[(3R,4S,5S)-1-{(2S)-2-[(1R,2R)-3-{[(2S)-1-(benzylamino)-3-(1H-indol-3-yl)-1-oxopropan-2-yl]amino}-1-methoxy-2-methyl-3-oxopropyl]pyrrolidin-1-yl}-3-methoxy-5-methyl-1-oxoheptan-4-yl]-N-methyl-L-valinamide], the “Tubulin polymerization in the presence … at 100%” value in the series on tubulin (setting [2]) turned out to be 45%. For the same compound, the “Papp (B-A)” value in the series on Caco-2 cells was 0.7 ×10⁻⁶ cm/s.

In the case of `CC[C@H](C)[C@@H]([C@@H](CC(=O)N1CCC[C@H]1[C@H](OC)[C@@H](C)C(=O)N[C@@H](Cc1c[nH]c2ccccc12)C(=O)N1CCCCO1)OC)N(C)C(=O)[C@@H](NC(=O)[C@H]([C@@H](C)O)N(C)CCCCCC(=O)NCCCC[C@H](N)C(=O)O)C(C)C` [Example 116, N-(6-{[(5S)-5-Amino-5-carboxypentyl]amino}-6-oxohexyl)-N-methyl-L-threonyl-N-[(3R,4S,5S)-1-{(2S)-2-[(1R,2R)-3-{[(2S)-3-(1H-indol-3-yl)-1-(1,2-oxazinan-2-yl)-1-oxopropan-2-yl]amino}-1-methoxy-2-methyl-3-oxopropyl]pyrrolidin-1-yl}-3-methoxy-5-methyl-1-oxoheptan-4-yl]-N-methyl-L-valinamide trifluoroacetate] (X4-V[Dil][Dolaproine]W-{Oxazinan2yl(1,2)}), the “Papp (B-A)” value in the series with Caco-2 cells amounted to 0.18 ×10⁻⁶ cm/s.

Consider `CC[C@H](C)[C@@H]([C@@H](CC(=O)N1CCC[C@H]1[C@H](OC)[C@@H](C)C(=O)N[C@@H](Cc1ccccc1)C(=O)NCc1ccccc1)OC)N(C)C(=O)[C@@H](NC(=O)[C@H](C(C)C)N(C)CCCC(=O)NNC(=O)CCCCCN1C(=O)CC(SC[C@H](N)C(=O)O)C1=O)C(C)C` (stereo partly drawn) [Example 69, N-(4-{2-[6-(3-{[(2R)-2-Amino-2-carboxyethyl]sulphanyl}-2,5-dioxopyrrolidin-1-yl)hexanoyl]hydrazino}-4-oxobutyl)-N-methyl-L-valyl-N-[(3R,4S,5S)-1-{(2S)-2-[(1R,2R)-3-{[(2S)-1-(benzylamino)-1-oxo-3-phenylpropan-2-yl]amino}-1-methoxy-2-methyl-3-oxopropyl]pyrrolidin-1-yl}-3-methoxy-5-methyl-1-oxoheptan-4-yl]-N-methyl-L-valinamide], for which, in the series on tubulin (setting [1]), the “Tubulin polymerization in the presence … at 100%” value came out at 110%.

On to `CC[C@H](C)[C@@H]([C@@H](CC(=O)N1CCC[C@H]1[C@H](OC)[C@@H](C)C(=O)N[C@@H](Cc1c[nH]c2ccccc12)C(=O)N1CCCCO1)OC)N(C)C(=O)[C@@H](NC(=O)[C@H](C(C)C)N(C)CCCCCCN1C(=O)CC(SC[C@H](N)C(=O)O)C1=O)C(C)C` (stereo partly drawn) [Example 67, N-[6-(3-{[(2R)-2-Amino-2-carboxyethyl]sulphanyl}-2,5-dioxopyrrolidin-1-yl)hexyl]-N-methyl-L-valyl-N-[(3R,4S,5S)-1-{(2S)-2-[(1R,2R)-3-{[(2S)-3-(1H-indol-3-yl)-1-(1,2-oxazinan-2-yl)-1-oxopropan-2-yl]amino}-1-methoxy-2-methyl-3-oxopropyl]pyrrolidin-1-yl}-3-methoxy-5-methyl-1-oxoheptan-4-yl]-N-methyl-L-valinamide] (X2-V[Dil][Dolaproine]W-{Oxazinan2yl(1,2)}), for which the “Tubulin polymerization in the presence … at 100%” value in the series on tubulin (setting [2]) turned out to be 35%.
